From patent US20240010616A1, “SIPONIMOD SALTS AND COCRYSTALS” (Synthon B.V., priority 2020, published 2024)
“Also recorded” adds a separate entry of the source.

Columns and labels:
[1] = Comparison of crystals (SEM pictures): crystal size and proneness to charging; type: physicochemical; conditions: compared with prior art fumarate salt; for Proneness of crystals to charging: relates to processability into final forms (tablets); for Crystal size: crystals depicted in FIGS. 17 to 28
Method: • DCS patterns were obtained using the following conditions: 10° C./min->250° C. • Pictures of crystals were obtained by SEM Jeol JCM-6000. • Nuclear magnetic resonance spectroscopy (NMR) was performed using Avance III 400 MHz NMR spectrometer.
Prior art fumarate salt was prepared according to procedure described in WO2010/080409. In FIGS. 17 to 22 the crystals of prior art salt (FIG. 22) and crystals of salts of the presented invention (FIGS. 17 to 21) are depicted.
The crystals of solid Form 11 of cocrystal of Siponimod with adipic acid (2:1) are depicted in FIGS. 25 to 27. The crystal of Siponimod fumarate, Form A, are depicted in FIG. 28.

[2] = Water activity measured by DVS (weight difference between 0 and 90% relative humidity); type: physicochemical; conditions: 25° C., 0-90-0% relative humidity, step 10%; compared with prior art Siponimod Fumarate (1:0.5), Form A
Method: Water activity of the prior art form and solid forms of presented invention was measured: DVS machine ProUmid SPX-1μ Advance, 25° C., 0-90-0% relative humidity, step 10%, maximal time per step 10 hours. Equilibrium bandwidth 0.05%/60 minutes.
Water activity: a difference between the weights of the sample in 0 and 90% of relative humidity at a constant temperature. It corresponds to the amount of water taken by the tested compound when the humidity changes from 0 to 90% at a constant temperature. The higher water activity the more water can be taken by the compound and that might result in lower purity of the compound because hydrolysis impurities can be formed.

| SMILES | Proneness of crystals to charging [1] | Crystal size [1] | Water activity [2] |
| --- | --- | --- | --- |
| CCc1cc(/C(C)=N/OCc2ccc(C3CCCCC3)c(C(F)(F)F)c2)ccc1CN1CC(C(=O)O)C1.CCc1cc(/C(C)=N/OCc2ccc(C3CCCCC3)c(C(F)(F)F)c2)ccc1CN1CC(C(=O)O)C1.O=C(O)CCCCC(=O)O [Form 11] | less prone to charging | much bigger than crystals of Form A | lower water activity than Siponimod fumarate, Form A; also recorded: better comparing to prior art forms |
| CCc1cc(/C(C)=N/OCc2ccc(C3CCCCC3)c(C(F)(F)F)c2)ccc1CN1CC(C(=O)O)C1.CCc1cc(/C(C)=N/OCc2ccc(C3CCCCC3)c(C(F)(F)F)c2)ccc1CN1CC(C(=O)O)C1.O=C(O)/C=C/C(=O)O [Prior art fumarate salt, reference compound] | prone to charging | small crystals |  |
